Measured values taken from PubChem BioAssay (NCI).
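Five concentrations, 48 hours, 96-well plates. At the TGI there is no net growth.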

Columns and labels:
Assay in all cases: inhibition of tumour cell growth, NCI panel, 48 h
SNB-19 CNS = system: SNB-19 CNS
SF-268 CNS = system: SF-268 CNS
HCT-116 colon = system: HCT-116 colon
SF-539 CNS = system: SF-539 CNS
SK-MEL-2 melanoma = system: SK-MEL-2 melanoma
HOP-62 NSCLC = system: HOP-62 NSCLC
EKVX NSCLC = system: EKVX NSCLC
CCRF-CEM leukemia = system: CCRF-CEM leukemia
SK-MEL-28 melanoma = system: SK-MEL-28 melanoma
BT-549 breast = system: BT-549 breast
K-562 leukemia = system: K-562 leukemia
MCF7 breast = system: MCF7 breast
OVCAR-8 ovarian = system: OVCAR-8 ovarian
HL-60(TB) leukemia = system: HL-60(TB) leukemia
U251 CNS = system: U251 CNS
PC-3 prostate = system: PC-3 prostate
HOP-92 NSCLC = system: HOP-92 NSCLC
786-0 renal = system: 786-0 renal
TK-10 renal = system: TK-10 renal
SK-OV-3 ovarian = system: SK-OV-3 ovarian
KM12 colon = system: KM12 colon
UACC-257 melanoma = system: UACC-257 melanoma
M14 melanoma = system: M14 melanoma
A549 NSCLC = system: A549 NSCLC
HT29 colon = system: HT29 colon
MDA-MB-231 breast = system: MDA-MB-231 breast
SW-620 colon = system: SW-620 colon
RPMI-8226 leukemia = system: RPMI-8226 leukemia
NCI-H23 lung = system: NCI-H23 lung
MALME-3M melanoma = system: MALME-3M melanoma
HCC-2998 colon = system: HCC-2998 colon
MDA-MB-435 = system: MDA-MB-435
SNB-75 CNS = system: SNB-75 CNS
RXF 393 renal = system: RXF 393 renal
UO-31 renal = system: UO-31 renal
OVCAR-3 ovarian = system: OVCAR-3 ovarian
LOX IMVI melanoma = system: LOX IMVI melanoma
CAKI-1 renal = system: CAKI-1 renal
NCI-H226 lung = system: NCI-H226 lung
OVCAR-4 ovarian = system: OVCAR-4 ovarian
ACHN renal = system: ACHN renal
T-47D breast = system: T-47D breast
UACC-62 melanoma = system: UACC-62 melanoma
HS 578T breast = system: HS 578T breast
HCT-15 colon = system: HCT-15 colon
NCI-H460 lung = system: NCI-H460 lung
MOLT-4 leukemia = system: MOLT-4 leukemia
MDA-N = system: MDA-N
SK-MEL-5 melanoma = system: SK-MEL-5 melanoma
SR leukemia = system: SR leukemia
OVCAR-5 ovarian = system: OVCAR-5 ovarian
A498 renal = system: A498 renal
SN12C renal = system: SN12C renal
IGROV1 ovarian = system: IGROV1 ovarian
NCI/ADR-RES ovarian = system: NCI/ADR-RES ovarian
DU-145 prostate = system: DU-145 prostate
SF-295 CNS = system: SF-295 CNS
COLO 205 colon = system: COLO 205 colon
NCI-H522 lung = system: NCI-H522 lung

For `Cc1cc(S(=O)(=O)n2ccnc2Oc2cccc(Cl)c2)c(SSc2cc(Cl)c(C)cc2S(=O)(=O)n2ccnc2Oc2cccc(Cl)c2)cc1Cl`, the TGI (SNB-19 CNS) was > 100 µM, the TGI (SF-268 CNS) was > 100 µM and the TGI (HCT-116 colon) was > 60.7 µM. For the same compound, the TGI (SF-539 CNS) was 37 µM, the TGI (SK-MEL-2 melanoma) was 26.9 µM and the TGI (HOP-62 NSCLC) was 38.7 µM. For the same compound, the TGI (EKVX NSCLC) was > 100 µM, the TGI (CCRF-CEM leukemia) was 10.7 µM and the TGI (SK-MEL-28 melanoma) was > 100 µM. The TGI (BT-549 breast) was 43 µM, the TGI (K-562 leukemia) was > 100 µM and the TGI (MCF7 breast) was > 29.3 µM. For the same compound, the TGI (OVCAR-8 ovarian) was > 41.8 µM, the TGI (HL-60(TB) leukemia) was 20.9 µM and the TGI (U251 CNS) was 12.4 µM. The TGI (PC-3 prostate) was > 78.5 µM, the TGI (HOP-92 NSCLC) was > 100 µM and the TGI (786-0 renal) was > 70 µM. The TGI (TK-10 renal) was > 100 µM, the TGI (SK-OV-3 ovarian) was > 92.5 µM and the TGI (KM12 colon) was > 100 µM. The TGI (UACC-257 melanoma) was > 100 µM, the TGI (M14 melanoma) was > 42 µM and the TGI (A549 NSCLC) was > 100 µM. The TGI (HT29 colon) was 48.5 µM, the TGI (MDA-MB-231 breast) was > 51.3 µM and the TGI (SW-620 colon) was > 100 µM. The TGI (RPMI-8226 leukemia) was > 38.7 µM, the TGI (NCI-H23 lung) was > 100 µM and the TGI (MALME-3M melanoma) was 41.1 µM. The TGI (HCC-2998 colon) was 53 µM, the TGI (MDA-MB-435) was 48.3 µM and the TGI (SNB-75 CNS) was > 91.1 µM. The TGI (RXF 393 renal) was 24.2 µM, the TGI (UO-31 renal) was > 100 µM and the TGI (OVCAR-3 ovarian) was > 100 µM. The TGI (LOX IMVI melanoma) was > 100 µM, the TGI (CAKI-1 renal) was > 43.5 µM and the TGI (NCI-H226 lung) was 30.7 µM. The TGI (OVCAR-4 ovarian) was > 100 µM, the TGI (ACHN renal) was > 32 µM and the TGI (T-47D breast) was > 67.2 µM. For the same compound, the TGI (UACC-62 melanoma) was > 53.2 µM, the TGI (HS 578T breast) was 21.2 µM and the TGI (HCT-15 colon) was > 100 µM. The TGI (NCI-H460 lung) was > 71.1 µM, the TGI (MOLT-4 leukemia) was 35 µM and the TGI (MDA-N) was > 58.3 µM. The TGI (SK-MEL-5 melanoma) was 23 µM, the TGI (SR leukemia) was > 100 µM and the TGI (OVCAR-5 ovarian) was > 100 µM. The TGI (A498 renal) was 84.5 µM, the TGI (SN12C renal) was > 100 µM and the TGI (IGROV1 ovarian) was > 100 µM. For the same compound, the TGI (NCI/ADR-RES ovarian) was 21.8 µM, the TGI (DU-145 prostate) was > 78.7 µM and the TGI (SF-295 CNS) was > 46.9 µM.
With `Cc1cc(O)c(C=O)c2c1C(=O)Oc1c(CO)c(O)c3c(c1O2)C(O)OC3=O` (stereo not drawn) the TGI (SNB-19 CNS) was > 100 µM, the TGI (SF-268 CNS) was > 100 µM and the TGI (HCT-116 colon) was > 100 µM. The TGI (SF-539 CNS) was > 100 µM, the TGI (SK-MEL-2 melanoma) was > 100 µM and the TGI (HOP-62 NSCLC) was > 100 µM. The TGI (EKVX NSCLC) was > 100 µM, the TGI (CCRF-CEM leukemia) was > 100 µM and the TGI (SK-MEL-28 melanoma) was > 100 µM. The TGI (BT-549 breast) was > 100 µM, the TGI (MCF7 breast) was > 100 µM and the TGI (OVCAR-8 ovarian) was > 100 µM. The TGI (HL-60(TB) leukemia) was 79.2 µM, the TGI (COLO 205 colon) was > 100 µM and the TGI (U251 CNS) was > 100 µM. For the same compound, the TGI (PC-3 prostate) was > 100 µM, the TGI (HOP-92 NSCLC) was > 100 µM and the TGI (786-0 renal) was > 100 µM. For the same compound, the TGI (TK-10 renal) was > 100 µM, the TGI (SK-OV-3 ovarian) was > 100 µM and the TGI (KM12 colon) was > 100 µM. The TGI (UACC-257 melanoma) was > 100 µM, the TGI (M14 melanoma) was > 100 µM and the TGI (A549 NSCLC) was > 100 µM. The TGI (HT29 colon) was > 100 µM, the TGI (MDA-MB-231 breast) was > 100 µM and the TGI (SW-620 colon) was > 100 µM. For the same compound, the TGI (RPMI-8226 leukemia) was 54.5 µM, the TGI (NCI-H23 lung) was > 100 µM and the TGI (MALME-3M melanoma) was > 100 µM. For the same compound, the TGI (HCC-2998 colon) was > 100 µM, the TGI (MDA-MB-435) was > 100 µM and the TGI (SNB-75 CNS) was > 100 µM. The TGI (RXF 393 renal) was > 100 µM, the TGI (UO-31 renal) was > 100 µM and the TGI (OVCAR-3 ovarian) was > 100 µM. For the same compound, the TGI (LOX IMVI melanoma) was > 100 µM, the TGI (CAKI-1 renal) was > 100 µM and the TGI (NCI-H226 lung) was > 100 µM. The TGI (OVCAR-4 ovarian) was > 100 µM, the TGI (ACHN renal) was > 100 µM and the TGI (NCI-H522 lung) was > 100 µM. For the same compound, the TGI (T-47D breast) was > 100 µM, the TGI (UACC-62 melanoma) was > 100 µM and the TGI (HS 578T breast) was > 100 µM. The TGI (HCT-15 colon) was > 100 µM, the TGI (MOLT-4 leukemia) was 94.1 µM and the TGI (MDA-N) was > 100 µM. For the same compound, the TGI (SK-MEL-5 melanoma) was > 100 µM, the TGI (SR leukemia) was 66.2 µM and the TGI (OVCAR-5 ovarian) was > 100 µM. For the same compound, the TGI (A498 renal) was > 100 µM, the TGI (SN12C renal) was > 100 µM and the TGI (IGROV1 ovarian) was > 100 µM. The TGI (NCI/ADR-RES ovarian) was > 100 µM, the TGI (DU-145 prostate) was > 100 µM and the TGI (SF-295 CNS) was > 100 µM.
With `CC1(C)OC2C(CO)OC(n3cnc(N)nc3=O)C2O1` (stereo not drawn) the TGI (SNB-19 CNS) was > 100 µM, the TGI (SF-268 CNS) was > 100 µM and the TGI (HCT-116 colon) was > 100 µM. For the same compound, the TGI (SF-539 CNS) was > 100 µM, the TGI (SK-MEL-2 melanoma) was > 100 µM and the TGI (HOP-62 NSCLC) was > 100 µM. The TGI (EKVX NSCLC) was > 100 µM, the TGI (CCRF-CEM leukemia) was > 100 µM and the TGI (SK-MEL-28 melanoma) was > 100 µM. For the same compound, the TGI (BT-549 breast) was > 100 µM, the TGI (K-562 leukemia) was > 100 µM and the TGI (MCF7 breast) was > 100 µM. The TGI (OVCAR-8 ovarian) was > 100 µM, the TGI (HL-60(TB) leukemia) was > 100 µM and the TGI (COLO 205 colon) was > 100 µM. The TGI (U251 CNS) was > 100 µM, the TGI (PC-3 prostate) was > 100 µM and the TGI (HOP-92 NSCLC) was > 100 µM. For the same compound, the TGI (786-0 renal) was > 100 µM, the TGI (TK-10 renal) was > 100 µM and the TGI (SK-OV-3 ovarian) was > 100 µM. For the same compound, the TGI (UACC-257 melanoma) was > 100 µM, the TGI (M14 melanoma) was > 100 µM and the TGI (A549 NSCLC) was > 100 µM. The TGI (MDA-MB-231 breast) was > 100 µM, the TGI (SW-620 colon) was > 100 µM and the TGI (RPMI-8226 leukemia) was > 100 µM. For the same compound, the TGI (NCI-H23 lung) was > 100 µM, the TGI (HCC-2998 colon) was > 100 µM and the TGI (MDA-MB-435) was > 100 µM. The TGI (RXF 393 renal) was > 100 µM, the TGI (UO-31 renal) was > 100 µM and the TGI (OVCAR-3 ovarian) was > 100 µM. The TGI (LOX IMVI melanoma) was > 100 µM, the TGI (CAKI-1 renal) was > 100 µM and the TGI (NCI-H226 lung) was > 100 µM. The TGI (ACHN renal) was > 100 µM, the TGI (NCI-H522 lung) was > 100 µM and the TGI (T-47D breast) was > 100 µM. For the same compound, the TGI (UACC-62 melanoma) was > 100 µM, the TGI (HS 578T breast) was > 100 µM and the TGI (HCT-15 colon) was > 100 µM. For the same compound, the TGI (NCI-H460 lung) was > 100 µM, the TGI (MOLT-4 leukemia) was > 100 µM and the TGI (MDA-N) was > 100 µM. For the same compound, the TGI (SK-MEL-5 melanoma) was > 100 µM, the TGI (SR leukemia) was > 100 µM and the TGI (OVCAR-5 ovarian) was > 100 µM. The TGI (A498 renal) was > 100 µM, the TGI (SN12C renal) was > 100 µM and the TGI (IGROV1 ovarian) was > 100 µM. The TGI (NCI/ADR-RES ovarian) was > 100 µM, the TGI (DU-145 prostate) was > 100 µM and the TGI (SF-295 CNS) was > 100 µM.
